Here are results for 14 compounds from US4338433A, “Moranoline derivatives and process for preparation thereof” (Nippon Shinyaku Co. Ltd., priority 1979, dated 1982).

In one test the test system is blood sugar levels. Kind of test: Effect of controlling increase of blood sugar levels in sucrose-loaded rats. It is filed as in vivo, rats of the SD series. To be noted: Rattus norvegicus, po, 3 h; 2 g/Kg sucrose and 5 mg/Kg test compound orally; ΔAUC over 180 minutes; male SD rats; read-out: Blood Level Increase Inhibition Ratio (%). As to the method: [Effect of Controlling Increase of Blood Sugar Levels]
Five-week-old male rats of the SD series are divided into groups, each consisting of 4 rats, and 2 g/Kg of sucrose and 5 mg/Kg of the test compound are orally administered. Blood is collected from the tail veins at predetermined intervals over a period of 180 minutes from the point of administration and the blood level values are measured. The area (ΔAUC) below the time-blood level increase curve is determined. The blood level increase inhibition ratio of the test compound is calculated from the basal value obtained in the group to which water alone has been administered and the control value obtained in the group to which sucrose alone has been administered according to the following formula: [formula]

Test [1] deals with T1, α-1,4-glucanglucohydrolase (glucoamylase) (Rhizopus arrhizus, UniProt P07683).
T1 sequence (P07683 26-604): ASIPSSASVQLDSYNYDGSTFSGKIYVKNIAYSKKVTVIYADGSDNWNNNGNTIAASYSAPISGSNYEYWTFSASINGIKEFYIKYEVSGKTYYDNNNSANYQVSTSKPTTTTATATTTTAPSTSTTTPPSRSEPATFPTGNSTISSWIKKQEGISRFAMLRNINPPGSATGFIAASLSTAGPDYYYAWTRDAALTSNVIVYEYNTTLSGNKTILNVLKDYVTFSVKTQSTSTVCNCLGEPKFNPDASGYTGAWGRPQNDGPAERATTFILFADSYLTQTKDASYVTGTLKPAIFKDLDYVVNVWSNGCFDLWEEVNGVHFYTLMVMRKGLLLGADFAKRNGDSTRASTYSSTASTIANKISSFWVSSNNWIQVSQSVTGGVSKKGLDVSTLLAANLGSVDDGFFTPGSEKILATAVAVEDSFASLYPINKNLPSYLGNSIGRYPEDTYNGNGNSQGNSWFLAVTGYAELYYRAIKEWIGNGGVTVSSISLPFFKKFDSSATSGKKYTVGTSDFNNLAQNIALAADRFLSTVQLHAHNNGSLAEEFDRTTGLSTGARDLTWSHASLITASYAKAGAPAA
Kind of test: Inhibition of α-1,4-glucanglucohydrolase (glucoamylase), soluble starch substrate. It is filed as biochemical. The note with it: read-out: percent inhibition at parenthesized concentration; for inhibition at 200 µg/mL: at 200 μg/ml (printed >200 μg/ml). The method, then:
Moranoline, N-lower-alkylmoranolines, oligoglycosylmoranolines and N-lower-alkyloligoglucosylmoranolines inhibit the activity of α-1,4-glucanglucohydrolase. The inhibition is determined according to the following method.
Glucoamylase (crystal) derived from Rhizopus nivens (supplied by Seikagaku Kogyo K. K.) is dissolved in distilled water so that the concentration is 50 μg/ml and the enzyme is used in the form of the so obtained solution.
Soluble starch is dissolved in a buffer solution at a high temperature so that the concentration is 1.4%, and the solution is cooled to room temperature and used.
0.1 M phosphate buffer solution (pH=5.7)
The starting liquid is incubated at 40° C. for 10 minutes, and 1 ml of a 0.3 N solution of Ba(OH)2 and 1 ml of a 5% solution of ZnSO4 are added. Centifugal separation is conducted under a load of 2000×g for 10 minutes, and 30 μl of the supernatant is sampled and 3 ml of a glucose color reagent (supplied by Boelunger Mannheim Co.; new blood sugar test) was added to the supernatant. The mixture was allowed to stand at room temperature for 35 minutes and the absorbance at 420 nm is measured. The percent inhibition is calculated according to the following formula: [formula] wherein C stands for the absorbance of the control, T stands for the absorbance of the test sample, B' stands for the absorbance of the blank (I), and B stands for the absorbance of the blank (II).
The percent inhibition is also determined in respect of dilutions, and the concentration (IC50) providing 50% inhibition is found. In Table 4, the percent inhibition obtained at a parenthesized concentration is shown when the inhibition is low.

For test [2], the target named is T2, α-1,4-glucanglucohydrolase (Rhizopus arrhizus, UniProt P07683).
T2 sequence (P07683 26-604): T1 sequence (P07683 26-604)
Kind of test: Decomposition of the substance by α-1,4-glucanglucohydrolase (glucose release). In kind it is biochemical. The text has this: Practically, reactions of the respective stages are advanced on a mixture of compounds differing in the glucose number (m). Accordingly, in order to accumulate intended G-MR in the liquid reaction mixture, it is indispensable that rate constants should be sufficiently high but the rate constant k1 should be sufficiently low. FIG. 4 clarifies this point. FIG. 4 will now be explained. A predetermined amount of N-methyloligoglycosylmoranoline is adsorbed on 1 g of Dowex 50W×2 (H^+) in an Erlenmeyer flask having a capacity of 125 ml, and they are suspended in 50 ml of distilled water and 10 mg of α-1,4-glucanglucohydrolase is added to the suspension. Incubation is carried out at 40° C., and 500 μl of the liquid is sampled at predetermined intervals and the amount of glucose is determined. When maltose is used as the substrate, it is mixed with 1 g of Dowex 50W×2 (H^+) and in this state, incubation is carried out at 40° C.
1 ml of 0.3 N Ba(OH)2 and 1 ml of 5% ZnSO4 are added to 500 μl of the reaction mixture liquid and centifugal separation is carried out under a load of 2000 g for 10 minutes. 30 μl of the supernatant is taken and 3 ml of a commercially available glucose color reagent (manufactured by Boehunger Mannheim Co.; new blood sugar test) is added to the sampled supernatant. The mixture is sufficiently stirred and allowed to stand at room temperature for 35 minutes and the absorbance at 420 nm is measured. Separately, a glucose reference reagent (9.1 mg/dl) is similarly treated and the absorbance at 420 nm is measured. Based on these measurements, the amount of glucose formed in the reaction mixture liquid is determined.
About 22 units/mg of α-1,4-glucanglucohydrolase (crystal) derived from Rhizopus niveus (supplied by Seikagaku Kogyo K.K.)
The reaction time is plotted on the abscissa and the ratio of decomposition based on complete decomposition of glucose is plotted on the ordinate. […] After determination of the amount of glucose, the reaction liquid is filtered and the ion exchange resin (Dowex 50W×2) is collected, washed with water sufficiently and eluted with 0.5 N aqueous ammonia. The eluate is concentrated under reduced pressure and dried to the solid. The solid is dissolved in distilled water and subjected to high speed liquid chromatography (Model ALC/GPC-244 supplied by Waters Co., μ-Bondapak NH2 column, acetonitrile/water=70/30, 1.5 cc/min), and the reaction product is identified by a chromatopac Model C-R1A supplied by Shimadzu Seisakusho K. K. The ratios of formation of N-methylmoranoline are […] in case of 4-(α-D-glucosyl)-N-methylmoranoline, 4-(α-D-amltosyl)-N-methylmoranoline, 4-(α-D-maltotriosyl)-N-methylmoranoline and 4-(α-D-maltotetraosyl)-N-methylmoranoline, respectively. […]

In the case of `OC[C@H]1NC[C@H](O)[C@@H](O)[C@@H]1O[C@H]1O[C@H](CO)[C@@H](O[C@H]2O[C@H](CO)[C@@H](O[C@H]3O[C@H](CO)[C@@H](O[C@H]4O[C@H](CO)[C@@H](O)[C@H](O)[C@H]4O)[C@H](O)[C@H]3O)[C@H](O)[C@H]2O)[C@H](O)[C@H]1O` [4-(α-D-maltotetraosyl)-moranoline], the inhibition in vivo at 5 mg/kg in the test with blood sugar levels was found to be 56%. Besides, the inhibition at 200 µg/mL in test [1] worked out at 0%.
As to `OC[C@H]1O[C@H](O[C@H]2[C@H](O)[C@@H](O)C(O)O[C@@H]2CO)[C@H](O)[C@@H](O)[C@@H]1O` (stereo partly shown) [maltose, reference compound], the “decomposition by α-1,4-glucanglucohydrolase (in words)” value (“decomposition” below) in test [2] (in 1 hour, 40° C., mixed with Dowex 50W×2 (H+)) is recorded as “decomposed substantially completely”; in test [2] (qualitative statement, FIG. 4) it was “promptly decomposed to glucose”.
As to `CN1C[C@H](O)[C@@H](O)[C@H](O[C@H]2O[C@H](CO)[C@@H](O[C@H]3O[C@H](CO)[C@@H](O[C@H]4O[C@H](CO)[C@@H](O[C@H]5O[C@H](CO)[C@@H](O[C@H]6O[C@H](CO)[C@@H](O)[C@H](O)[C@H]6O)[C@H](O)[C@H]5O)[C@H](O)[C@H]4O)[C@H](O)[C@H]3O)[C@H](O)[C@H]2O)[C@H]1CO` [4-(α-D-maltopentaosyl)-N-methylmoranoline], the inhibition in vivo at 5 mg/kg with blood sugar levels is 23%.
`OC[C@H]1NC[C@H](O)[C@@H](O)[C@@H]1O` [moranoline, Moranoline]: the inhibition in vivo at 5 mg/kg in the test on blood sugar levels amounted to 19%.
For the compound `OC[C@H]1NC[C@H](O)[C@@H](O)[C@@H]1O[C@H]1O[C@H](CO)[C@@H](O)[C@H](O)[C@H]1O` [4-(α-D-glucosyl)-moranoline], the inhibition in vivo at 5 mg/kg in the test with blood sugar levels came to 44%. Besides, the inhibition at 200 µg/mL in test [1] was determined as 15%. Further, the “decomposition” value in test [2] (qualitative statement, FIG. 4) was “hardly decomposed”.
Turning to `OC[C@H]1NC[C@H](O)[C@@H](O)[C@@H]1O[C@H]1O[C@H](CO)[C@@H](O[C@H]2O[C@H](CO)[C@@H](O)[C@H](O)[C@H]2O)[C@H](O)[C@H]1O` [4-(α-D-maltosyl)-moranoline], the inhibition in vivo at 5 mg/kg in the test with blood sugar levels came to 35%. The inhibition at 200 µg/mL in test [1] came out at 0%.
As to `CN1C[C@H](O)[C@@H](O)[C@H](O[C@H]2O[C@H](CO)[C@@H](O)[C@H](O)[C@H]2O)[C@H]1CO` [4-(α-D-glucosyl)-N-methylmoranoline], the inhibition in vivo at 5 mg/kg with blood sugar levels turned out to be 56%. Also, the “decomposition” value in test [2] (qualitative statement, FIG. 4) is recorded as “extremely small”.
On to `CN1C[C@H](O)[C@@H](O)[C@H](O[C@H]2O[C@H](CO)[C@@H](O[C@H]3O[C@H](CO)[C@@H](O[C@H]4O[C@H](CO)[C@@H](O)[C@H](O)[C@H]4O)[C@H](O)[C@H]3O)[C@H](O)[C@H]2O)[C@H]1CO` [4-(α-D-maltotriosyl)-N-methylmoranoline], for which the inhibition in vivo at 5 mg/kg in the test on blood sugar levels is 29%.
On the same count and under the same terms, the same measure for `CCCN1C[C@H](O)[C@@H](O)[C@H](O[C@H]2O[C@H](CO)[C@@H](O)[C@H](O)[C@H]2O)[C@H]1CO` [4-(α-D-glucosyl)-N-propylmoranoline]: 24%.
Consider `CCN1C[C@H](O)[C@@H](O)[C@H](O[C@H]2O[C@H](CO)[C@@H](O)[C@H](O)[C@H]2O)[C@H]1CO` [4-(α-D-glucosyl)-N-ethylmoranoline], for which the inhibition in vivo at 5 mg/kg in the test with blood sugar levels was found to be 22%. Moreover, the inhibition at 800 µg/mL in test [1] (at 800 μg/ml (printed >800 μg/ml)) amounted to 38%.
With `CCN1C[C@H](O)[C@@H](O)[C@H](O[C@H]2O[C@H](CO)[C@@H](O[C@H]3O[C@H](CO)[C@@H](O)[C@H](O)[C@H]3O)[C@H](O)[C@H]2O)[C@H]1CO` [4-(α-D-maltosyl)-N-ethylmoranoline], the inhibition in vivo at 5 mg/kg with blood sugar levels worked out at 35%.
With `CN1C[C@H](O)[C@@H](O)[C@H](O[C@H]2O[C@H](CO)[C@@H](O[C@H]3O[C@H](CO)[C@@H](O[C@H]4O[C@H](CO)[C@@H](O[C@H]5O[C@H](CO)[C@@H](O)[C@H](O)[C@H]5O)[C@H](O)[C@H]4O)[C@H](O)[C@H]3O)[C@H](O)[C@H]2O)[C@H]1CO` [4-(α-D-maltotetraosyl)-N-methylmoranoline], the inhibition in vivo at 5 mg/kg in the test with blood sugar levels came to 25%.
Take `CN1C[C@H](O)[C@@H](O)[C@H](O[C@H]2O[C@H](CO)[C@@H](O[C@H]3O[C@H](CO)[C@@H](O)[C@H](O)[C@H]3O)[C@H](O)[C@H]2O)[C@H]1CO` [4-(α-D-maltosyl)-N-methylmoranoline]: the inhibition in vivo at 5 mg/kg in the test on blood sugar levels came out at 62%.
`OC[C@H]1NC[C@H](O)[C@@H](O)[C@@H]1O[C@H]1O[C@H](CO)[C@@H](O[C@H]2O[C@H](CO)[C@@H](O[C@H]3O[C@H](CO)[C@@H](O)[C@H](O)[C@H]3O)[C@H](O)[C@H]2O)[C@H](O)[C@H]1O` [4-(α-D-maltotriosyl)-moranoline]: the inhibition in vivo at 5 mg/kg in the test with blood sugar levels was 31%. For the same compound, the inhibition at 200 µg/mL in test [1] is 0%.
